# Assay results as given in US20050209278A1, “Piperidinyl- and piperazinyl-sulfonylmethyl hydroxamic acids and their use as protease inhibitors” (priority 2002, published 2005).
# What was measured:
# [1] = target: T1, MMP-14 (Homo sapiens, UniProt P50281); experiment: In vitro MMP inhibition, Ki determination (fluorogenic substrate II); assay type: biochemical; conditions: value outside parentheses; read-out: MMP-14 Ki
# T1 construct: The catalytic domain enzyme was expressed in E. coli inclusion bodies, solubilized in urea; made in house
# Method in brief: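 E. coli-expressed, refolded MMP-14 catalytic domain, activated with APMA or trypsin, in 100 mM Tris-HCl pH 7.5, 100 mM NaCl, 10 mM CaCl2, 0.05% Brij-type detergent. Apparent Ki by Morrison-equation regression of velocity vs inhibitor and enzyme concentration.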
# [2] = target: T2, MMP-13 (Homo sapiens, UniProt P45452); experiment: as above; assay type: biochemical; conditions: value outside parentheses; read-out: MMP-13 Ki
# T2 construct: made in house; host or cells: baculovirus / insect cells
# Method in brief: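 Ki determined with human recombinant MMP-13, baculovirus-expressed as proenzyme and activated with APMA. Fluorogenic MCA/Dpa substrate II at 4 μM (at or below Km) with low enzyme in Tris buffer pH 7.5 with CaCl2. Incubation was 1 h at room temperature, with fluorescence read at 330/420 nm.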
SMILES,Ki [1] [µM],Ki [2] [nM]
CCCCOc1ccc(N2CCN(S(=O)(=O)C3(C(=O)NO)CCNCC3)CC2)cc1 [Example 276],> 10,2.49
CCCCOc1ccc(N2CCN(S(=O)(=O)C3(C(=O)NO)CCN(C(=O)c4ccccn4)CC3)CC2)cc1 [Example 277],3.02,0.23
CCCCOc1ccc(N2CCN(S(=O)(=O)C3(C(=O)NO)CCN(C(=O)CCCC)CC3)CC2)cc1 [Example 278],5.26,0.49
CC(C)CCOc1ccc(N2CCN(S(=O)(=O)C3(C(=O)NO)CCOCC3)CC2)cc1 [Example 279],4.27,0.32
CCCCOc1ccc(N2CCN(S(=O)(=O)C3(C(=O)NO)CCN(C)CC3)CC2)cc1 [Example 280],7.31,1.02
CCCCOc1ccc(N2CCN(S(=O)(=O)C3(C(=O)NO)CCN(c4ccc(Cl)nn4)CC3)CC2)cc1 [Example 281],1.63,0.442
CCCCOc1ccc(N2CCN(S(=O)(=O)C3(C(=O)NO)CCN(C(C)=O)CC3)CC2)cc1 [Example 282],1.48,0.27
CCCCOc1ccc(N2CCN(S(=O)(=O)C3(C(=O)NO)CCN(c4ccc(O)nn4)CC3)CC2)cc1 [Example 283],0.549,0.19
CCCCOc1ccc(N2CCN(S(=O)(=O)C3(C(=O)NO)CCN(CCOC)CC3)CC2)c(F)c1 [Example 284],2.77,0.12
CCCCOc1ccc(N2CCN(S(=O)(=O)C3(C(=O)NO)CCN(Cc4ccccc4)CC3)CC2)cc1F [Example 285],> 10,2.06
CCCCOc1ccc(N2CCN(S(=O)(=O)C3(C(=O)NO)CCNCC3)CC2)cc1F [Example 286],> 10,5.97
COCCN1CCC(C(=O)NO)(S(=O)(=O)N2CCN(c3ccc(Oc4ccccc4)cc3)CC2)CC1 [Example 287],6.94,3.33
CCCCOc1ccc(N2CCN(S(=O)(=O)C3(C(=O)NO)CCN(C(=O)CN)CC3)CC2)cc1 [Example 292],6.54,0.98
CCCCOc1ccc(N2CCN(S(=O)(=O)C3(C(=O)NO)CCN(Cc4cccnc4)CC3)CC2)cc1F [Example 293],5.44,0.313
CCCCOc1ccc(N2CCN(S(=O)(=O)C3(C(=O)NO)CCN(c4ccc(C)cc4)CC3)CC2)cc1 [Example 295],8.65,9.13
CCCCOc1ccc(N2CCN(S(=O)(=O)C3(C(=O)NO)CCN(CC4CC4)CC3)CC2)cc1 [Example 298],> 10,0.702
Cc1cc(N2CCN(S(=O)(=O)C3(C(=O)NO)CCOCC3)CC2)ccc1OC(C)C [Example 299],> 10,3.04
CS(=O)(=O)c1ccc(N2CCN(S(=O)(=O)C3(C(=O)NO)CCOCC3)CC2)cc1 [Example 300],> 10,42.7
C#CCN1CCC(C(=O)NO)(S(=O)(=O)N2CCN(c3ccc(OCCCC)cc3)CC2)CC1 [Example 303],5,0.46
CCCCCc1ccc(C2CCN(S(=O)(=O)C3(C(=O)NO)CCOCC3)CC2)nc1 [Example 305],0.645,0.136
O=C(NO)C1(S(=O)(=O)N2CCC(c3ccc(Br)cn3)CC2)CCOCC1 [Example 306],0.0317,0.863
CCCCc1ccc(C2CCN(S(=O)(=O)C3(C(=O)NO)CCOCC3)CC2)nc1 [Example 307],1.29,0.654
O=C(NO)C1(S(=O)(=O)N2CCC(c3ccc(-c4ccc(F)cc4F)cn3)CC2)CCOCC1 [Example 308],1.04,4.26
COCCN1CCC(C(=O)NO)(S(=O)(=O)N2CCC(c3ccc(CCC(F)(F)F)cc3)CC2)CC1 [Example 309],1.44,0.355
COCCN1CCC(C(=O)NO)(S(=O)(=O)N2CCC(c3ccc(CCCC(F)(F)F)cc3)CC2)CC1 [Example 310],4.82,0.268
COCCN1CCC(C(=O)NO)(S(=O)(=O)N2CCC(c3ncc(CC(C)C)s3)CC2)CC1 [Example 311],> 10,1.56
COCCN1CCC(C(=O)NO)(S(=O)(=O)N2CCC(c3ccc(CCC(F)(F)C(F)(F)F)cc3)CC2)CC1 [Example 312],2.04,0.2
